The values that follow are results of earlier work, collected in US10695309B2 (Western New England University, priority 2017, dated 2020).

By half-life is commonly meant the time in which the quantity being followed falls by half.

For this data set the following is noted: for half-life: in vivo.

With `N[C@@H](Cc1cc(I)c(Oc2ccc(O)c(I)c2)c(I)c1)C(=O)O` [Formulation T3, Liothyronine], the half-life entry is “less than 2 days”. Further, the bioavailability (reported) is 69-99%.

Turning to `N[C@@H](Cc1cc(I)c(Oc2cc(I)c(O)c(I)c2)c(I)c1)C(=O)O` [Formulation T4, levothyroxine], the half-life was 140 to 170 h.
